Results taken from US20260250318A1, “COMPOSITIONS AND METHODS FOR CROSSING THE BLOOD BRAIN BARRIER” (VOYAGER THERAPEUTICS, INC., priority 2022, published 2026).

Assays:
[1] = tested on: brains, heart, liver, muscle, and DRG of the NHPs; assay: Maturation of TTM-001 and TTM-002 capsids, NGS enrichment in NHP tissues; format: in vivo; details: relative to AAV9 control
Method in brief: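 Variants carry mutations within and flanking the loop IV peptide insert: positions 450–466 were triplet-randomized, while positions 449–466 received low-frequency point mutations. The combined pool went into two NHPs, and each peptide was scored by NGS enrichment ratio against AAV9.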

[2] = tested on: brain; assay: Matured TTM-001 and TTM-002 variants, NGS enrichment in mouse brain; format: in vivo, mice; details: relative to AAV9 control
[3] = NGS fold-enrichment, DRG of NHPs
[4] = NGS fold-enrichment, RNA, brain of NHPs
[5] = NGS fold-enrichment, heart of NHPs
[6] = NGS fold-enrichment, liver DNA of NHPs
[7] = NGS fold-enrichment, liver RNA of NHPs
[8] = NGS fold-enrichment, muscle of NHPs
[9] = NGS fold-enrichment, brain of mice
[10] = NGS fold-enrichment of RNA, NHP brain
[11] = NGS fold-enrichment, NHP liver DNA
[12] = NGS fold-enrichment, NHP liver RNA
[13] = NGS fold-enrichment, NHP muscle
[14] = NGS fold-enrichment, mouse brain

Sequence: KTFNGGGSPHSKAQYQQT
- Fold Enrichment relative to AAV9, Brain (NHP) ([1]; NGS fold-enrichment of matured AAV capsid variants, NHP brain, RNA): 58.609 fold
- Fold Enrichment relative to AAV9, DRG (NHP) ([1]; NHP DRG): 0.000 fold
- Fold Enrichment relative to AAV9, Heart (NHP) ([1]; NHP heart): 0.000 fold
- Fold Enrichment relative to AAV9, Liver DNA (NHP) ([1]; NHP liver, DNA): 0.045 fold
- Fold Enrichment relative to AAV9, Liver RNA (NHP) ([1]; NHP liver, RNA): 0.163 fold
- Fold Enrichment relative to AAV9, Muscle (NHP) ([1]; NHP muscle): 0.000 fold
- Fold Enrichment relative to AAV9, Brain (Mouse) ([2]; mouse brain): 72.618 fold

Sequence: KTFNGSGSPHNKAQNHQT
- Fold Enrichment relative to AAV9, DRG (NHP) [1, 3]: 0.000 fold
- Fold Enrichment relative to AAV9, Brain (NHP) [1, 4]: 64.060 fold
- Fold Enrichment relative to AAV9, Heart (NHP) [1, 5]: 0.000 fold
- Fold Enrichment relative to AAV9, Liver DNA (NHP) [1, 6]: 0.317 fold
- Fold Enrichment relative to AAV9, Liver RNA (NHP) [1, 7]: 0.094 fold
- Fold Enrichment relative to AAV9, Muscle (NHP) [1, 8]: 0.035 fold
- Fold Enrichment relative to AAV9, Brain (Mouse) [2, 9]: 67.757 fold

Sequence: KTFNGSGSPHSKAPNLQT
- Fold Enrichment relative to AAV9, Brain (NHP) [1, 10]: 121.436 fold
- Fold Enrichment relative to AAV9, DRG (NHP) [1, 3]: 0.000 fold
- Fold Enrichment relative to AAV9, DRG (NHP) ([1]; NGS fold-enrichment, NHP DRG): 0.000 fold
- Fold Enrichment relative to AAV9, Heart (NHP) ([1]; NGS fold-enrichment, NHP heart): 0.167 fold
- Fold Enrichment relative to AAV9, Liver DNA (NHP) [1, 11]: 0.015 fold
- Fold Enrichment relative to AAV9, Liver RNA (NHP) [1, 12]: 0.000 fold
- Fold Enrichment relative to AAV9, Muscle (NHP) [1, 13]: 0.000 fold
- Fold Enrichment relative to AAV9, Brain (NHP) [1, 4]: 121.436 fold
- Fold Enrichment relative to AAV9, Heart (NHP) [1, 5]: 0.167 fold
- Fold Enrichment relative to AAV9, Liver DNA (NHP) [1, 6]: 0.015 fold
- Fold Enrichment relative to AAV9, Liver RNA (NHP) [1, 7]: 0.000 fold
- Fold Enrichment relative to AAV9, Muscle (NHP) [1, 8]: 0.000 fold
- Fold Enrichment relative to AAV9, Brain (Mouse) [2, 9]: 168.920 fold
- Fold Enrichment relative to AAV9, Brain (Mouse) [2, 14]: 168.920 fold

Sequence: KTFNGSGSPHSKAQGQQT
- Fold Enrichment relative to AAV9, Brain (NHP) [1, 10]: 99.253 fold
- Fold Enrichment relative to AAV9, DRG (NHP) [1, 3]: 0.000 fold
- Fold Enrichment relative to AAV9, DRG (NHP) ([1]; NGS fold-enrichment, NHP DRG): 0.000 fold
- Fold Enrichment relative to AAV9, Heart (NHP) ([1]; NGS fold-enrichment, NHP heart): 0.208 fold
- Fold Enrichment relative to AAV9, Liver DNA (NHP) [1, 11]: 0.099 fold
- Fold Enrichment relative to AAV9, Liver RNA (NHP) [1, 12]: 0.128 fold
- Fold Enrichment relative to AAV9, Muscle (NHP) [1, 13]: 0.000 fold
- Fold Enrichment relative to AAV9, Brain (NHP) [1, 4]: 99.253 fold
- Fold Enrichment relative to AAV9, Heart (NHP) [1, 5]: 0.208 fold
- Fold Enrichment relative to AAV9, Liver DNA (NHP) [1, 6]: 0.099 fold
- Fold Enrichment relative to AAV9, Liver RNA (NHP) [1, 7]: 0.128 fold
- Fold Enrichment relative to AAV9, Muscle (NHP) [1, 8]: 0.000 fold
- Fold Enrichment relative to AAV9, Brain (Mouse) [2, 9]: 81.459 fold
- Fold Enrichment relative to AAV9, Brain (Mouse) [2, 14]: 81.459 fold

Sequence: KTFNRSGSPHSKAQNQQI
- Fold Enrichment relative to AAV9, Brain (NHP) [1, 10]: 86.359 fold
- Fold Enrichment relative to AAV9, DRG (NHP) ([1]; NGS fold-enrichment, NHP DRG): 0.000 fold
- Fold Enrichment relative to AAV9, Heart (NHP) ([1]; NGS fold-enrichment, NHP heart): 113.67 fold
- Fold Enrichment relative to AAV9, Liver DNA (NHP) [1, 11]: 0.092 fold
- Fold Enrichment relative to AAV9, Liver RNA (NHP) [1, 12]: 0.000 fold
- Fold Enrichment relative to AAV9, Muscle (NHP) [1, 13]: 0.000 fold
- Fold Enrichment relative to AAV9, Brain (Mouse) [2, 14]: 25.568 fold

Sequence: KTFPGSGSPHSKVQNQQT
- Fold Enrichment relative to AAV9, Brain (NHP) [1, 10]: 199.720 fold
- Fold Enrichment relative to AAV9, DRG (NHP) [1, 3]: 0.000 fold
- Fold Enrichment relative to AAV9, DRG (NHP) ([1]; NGS fold-enrichment, NHP DRG): 0.000 fold
- Fold Enrichment relative to AAV9, Heart (NHP) ([1]; NGS fold-enrichment, NHP heart): 0.000 fold
- Fold Enrichment relative to AAV9, Liver DNA (NHP) [1, 11]: 0.967 fold
- Fold Enrichment relative to AAV9, Liver RNA (NHP) [1, 12]: 0.000 fold
- Fold Enrichment relative to AAV9, Muscle (NHP) [1, 13]: 0.000 fold
- Fold Enrichment relative to AAV9, Brain (NHP) [1, 4]: 199.720 fold
- Fold Enrichment relative to AAV9, Heart (NHP) [1, 5]: 0.000 fold
- Fold Enrichment relative to AAV9, Liver DNA (NHP) [1, 6]: 0.967 fold
- Fold Enrichment relative to AAV9, Liver RNA (NHP) [1, 7]: 0.000 fold
- Fold Enrichment relative to AAV9, Muscle (NHP) [1, 8]: 0.000 fold
- Fold Enrichment relative to AAV9, Brain (Mouse) [2, 9]: 97.703 fold
- Fold Enrichment relative to AAV9, Brain (Mouse) [2, 14]: 97.703 fold

Sequence: KTFSGSGSPHSKAQNLQT
- Fold Enrichment relative to AAV9, DRG (NHP) [1, 3]: 0.000 fold
- Fold Enrichment relative to AAV9, Brain (NHP) [1, 4]: 70.035 fold
- Fold Enrichment relative to AAV9, Heart (NHP) [1, 5]: 0.327 fold
- Fold Enrichment relative to AAV9, Liver DNA (NHP) [1, 6]: 0.228 fold
- Fold Enrichment relative to AAV9, Liver RNA (NHP) [1, 7]: 0.000 fold
- Fold Enrichment relative to AAV9, Muscle (NHP) [1, 8]: 0.303 fold
- Fold Enrichment relative to AAV9, Brain (Mouse) [2, 9]: 70.917 fold
